Data reported in ChEMBL document CHEMBL1201862, “PubChem BioAssay data set” (2004).
The source made the active and inactive calls.

Tests used:
[1] = biological target: Adenosylmethionine-8-amino-7-oxononanoate aminotransferase (Mycobacterium tuberculosis, UniProt P9WQ81); test: Mycobacterium tuberculosis BioA enzyme inhibitor Measured in Biochemical System Using Plate Reader - 2163-02_Inhibitor_Dose_CherryPick_Activity.; type: functional, Mycobacterium tuberculosis UT205
Nonstructural protein 1 = Nonstructural protein 1 (Influenza A virus, UniProt Q194T2); type: functional, Influenza A virus (A/California/07/2009(H1N1))
Sequence of Nonstructural protein 1 (Q194T2 whole entry): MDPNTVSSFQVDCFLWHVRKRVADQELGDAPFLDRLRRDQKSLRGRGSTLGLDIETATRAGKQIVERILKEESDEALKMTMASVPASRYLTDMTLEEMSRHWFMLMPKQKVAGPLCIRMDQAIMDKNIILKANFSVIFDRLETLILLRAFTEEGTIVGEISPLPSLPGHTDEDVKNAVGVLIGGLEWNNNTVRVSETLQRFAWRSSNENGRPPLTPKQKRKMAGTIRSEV

[2] = biological target: Ras and Rab interactor 1/Tyrosine-protein kinase ABL1 (Homo sapiens, UniProt P00519+Q13671); type: functional;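 further: biochemical TR-FRET dose-response test measuring inhibition of binding between Rin1 and Abl proteins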
Sequence of Ras and Rab interactor 1/Tyrosine-protein kinase ABL1 (P00519 whole entry): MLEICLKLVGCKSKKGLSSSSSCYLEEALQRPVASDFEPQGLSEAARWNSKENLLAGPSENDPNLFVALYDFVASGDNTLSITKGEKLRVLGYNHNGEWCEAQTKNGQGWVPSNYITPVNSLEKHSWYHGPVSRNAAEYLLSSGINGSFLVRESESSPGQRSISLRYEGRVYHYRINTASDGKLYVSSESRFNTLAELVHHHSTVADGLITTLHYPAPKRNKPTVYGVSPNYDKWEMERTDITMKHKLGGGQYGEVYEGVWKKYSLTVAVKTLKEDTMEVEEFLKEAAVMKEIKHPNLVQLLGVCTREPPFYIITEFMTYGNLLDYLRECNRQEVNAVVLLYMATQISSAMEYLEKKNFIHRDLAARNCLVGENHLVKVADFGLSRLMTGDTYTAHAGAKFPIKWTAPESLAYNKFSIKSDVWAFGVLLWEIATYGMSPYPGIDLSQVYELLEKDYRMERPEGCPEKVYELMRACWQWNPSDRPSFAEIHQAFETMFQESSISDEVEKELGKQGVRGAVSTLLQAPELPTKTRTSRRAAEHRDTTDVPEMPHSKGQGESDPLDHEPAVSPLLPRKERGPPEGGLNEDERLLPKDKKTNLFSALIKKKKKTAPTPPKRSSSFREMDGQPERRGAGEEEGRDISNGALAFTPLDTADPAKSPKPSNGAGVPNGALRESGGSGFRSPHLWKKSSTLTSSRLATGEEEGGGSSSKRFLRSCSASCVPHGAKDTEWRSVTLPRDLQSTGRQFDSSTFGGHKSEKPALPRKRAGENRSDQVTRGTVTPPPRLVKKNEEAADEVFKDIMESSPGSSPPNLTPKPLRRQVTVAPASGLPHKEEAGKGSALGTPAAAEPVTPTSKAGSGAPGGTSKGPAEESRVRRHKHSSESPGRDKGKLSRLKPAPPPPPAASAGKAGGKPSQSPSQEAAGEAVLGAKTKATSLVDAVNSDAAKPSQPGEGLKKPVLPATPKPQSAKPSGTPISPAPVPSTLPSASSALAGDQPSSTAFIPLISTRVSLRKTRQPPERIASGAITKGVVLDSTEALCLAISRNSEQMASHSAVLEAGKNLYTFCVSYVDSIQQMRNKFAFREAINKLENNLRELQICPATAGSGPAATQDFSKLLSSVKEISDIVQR
Sequence of Ras and Rab interactor 1/Tyrosine-protein kinase ABL1 (Q13671 whole entry): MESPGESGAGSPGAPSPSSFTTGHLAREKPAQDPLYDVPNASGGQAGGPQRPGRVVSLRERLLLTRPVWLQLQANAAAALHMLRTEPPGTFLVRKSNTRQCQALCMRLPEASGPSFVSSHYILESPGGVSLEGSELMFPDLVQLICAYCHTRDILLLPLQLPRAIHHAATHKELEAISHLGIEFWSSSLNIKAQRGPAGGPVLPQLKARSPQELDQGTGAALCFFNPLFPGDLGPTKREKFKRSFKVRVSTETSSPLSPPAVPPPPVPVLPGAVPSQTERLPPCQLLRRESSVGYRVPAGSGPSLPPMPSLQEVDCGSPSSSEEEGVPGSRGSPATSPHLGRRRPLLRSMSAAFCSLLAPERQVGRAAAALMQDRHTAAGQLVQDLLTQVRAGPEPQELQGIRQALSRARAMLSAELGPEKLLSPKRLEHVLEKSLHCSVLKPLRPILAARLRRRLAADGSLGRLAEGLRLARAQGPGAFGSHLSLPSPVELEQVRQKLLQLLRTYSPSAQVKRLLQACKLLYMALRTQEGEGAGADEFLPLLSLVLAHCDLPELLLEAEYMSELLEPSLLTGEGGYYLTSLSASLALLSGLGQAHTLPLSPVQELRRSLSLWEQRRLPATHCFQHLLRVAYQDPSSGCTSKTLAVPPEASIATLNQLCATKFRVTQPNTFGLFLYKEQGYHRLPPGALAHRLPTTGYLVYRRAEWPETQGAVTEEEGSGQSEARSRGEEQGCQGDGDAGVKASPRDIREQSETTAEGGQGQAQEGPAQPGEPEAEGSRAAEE

[3] = biological target: T1, Histone-lysine N-methyltransferase NSD2 (Homo sapiens, UniProt O96028); type: biochemical
T1 sequence (O96028 whole entry): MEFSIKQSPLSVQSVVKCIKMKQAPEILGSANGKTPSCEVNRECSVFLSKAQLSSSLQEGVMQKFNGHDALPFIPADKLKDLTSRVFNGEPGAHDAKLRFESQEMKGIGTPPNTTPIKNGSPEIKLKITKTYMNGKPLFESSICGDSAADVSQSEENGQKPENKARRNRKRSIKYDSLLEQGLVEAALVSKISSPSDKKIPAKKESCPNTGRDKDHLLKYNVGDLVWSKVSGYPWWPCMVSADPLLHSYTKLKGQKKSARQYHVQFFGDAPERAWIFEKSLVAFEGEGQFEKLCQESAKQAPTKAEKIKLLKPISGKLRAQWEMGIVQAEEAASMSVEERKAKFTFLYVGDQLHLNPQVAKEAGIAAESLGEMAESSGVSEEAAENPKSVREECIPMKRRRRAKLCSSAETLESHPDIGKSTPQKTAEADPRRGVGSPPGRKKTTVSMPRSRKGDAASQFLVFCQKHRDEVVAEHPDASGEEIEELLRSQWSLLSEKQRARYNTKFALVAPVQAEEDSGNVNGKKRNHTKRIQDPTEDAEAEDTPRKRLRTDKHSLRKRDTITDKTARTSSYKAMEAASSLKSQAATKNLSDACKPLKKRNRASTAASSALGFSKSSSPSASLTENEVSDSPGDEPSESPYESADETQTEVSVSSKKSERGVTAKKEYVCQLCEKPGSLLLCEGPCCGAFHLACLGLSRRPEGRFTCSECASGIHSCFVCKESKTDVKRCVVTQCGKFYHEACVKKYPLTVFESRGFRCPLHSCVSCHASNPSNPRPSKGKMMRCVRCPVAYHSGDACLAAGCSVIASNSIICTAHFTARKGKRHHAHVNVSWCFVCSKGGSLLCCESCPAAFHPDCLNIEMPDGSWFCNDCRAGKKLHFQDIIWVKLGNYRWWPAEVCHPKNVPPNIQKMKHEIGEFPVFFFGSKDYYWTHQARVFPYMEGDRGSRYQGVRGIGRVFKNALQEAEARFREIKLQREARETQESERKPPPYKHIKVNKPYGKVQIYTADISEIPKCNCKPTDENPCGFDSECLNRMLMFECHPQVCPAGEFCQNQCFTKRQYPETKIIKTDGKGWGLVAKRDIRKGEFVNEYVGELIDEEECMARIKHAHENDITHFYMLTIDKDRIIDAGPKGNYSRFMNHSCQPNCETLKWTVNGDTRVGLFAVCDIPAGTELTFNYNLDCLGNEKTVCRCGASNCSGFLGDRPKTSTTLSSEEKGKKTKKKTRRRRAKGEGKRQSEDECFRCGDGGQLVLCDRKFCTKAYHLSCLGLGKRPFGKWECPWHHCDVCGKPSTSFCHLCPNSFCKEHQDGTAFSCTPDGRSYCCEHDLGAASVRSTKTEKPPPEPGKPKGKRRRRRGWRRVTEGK

[4] = biological target: T2, High affinity choline transporter 1 (Homo sapiens, UniProt Q9GZV3); test: human choline transporter blockers, potency – cell-based, 5-point CRC, membrane potential dye, dose response (AID 504840); type: functional
T2 sequence (Q9GZV3 whole entry): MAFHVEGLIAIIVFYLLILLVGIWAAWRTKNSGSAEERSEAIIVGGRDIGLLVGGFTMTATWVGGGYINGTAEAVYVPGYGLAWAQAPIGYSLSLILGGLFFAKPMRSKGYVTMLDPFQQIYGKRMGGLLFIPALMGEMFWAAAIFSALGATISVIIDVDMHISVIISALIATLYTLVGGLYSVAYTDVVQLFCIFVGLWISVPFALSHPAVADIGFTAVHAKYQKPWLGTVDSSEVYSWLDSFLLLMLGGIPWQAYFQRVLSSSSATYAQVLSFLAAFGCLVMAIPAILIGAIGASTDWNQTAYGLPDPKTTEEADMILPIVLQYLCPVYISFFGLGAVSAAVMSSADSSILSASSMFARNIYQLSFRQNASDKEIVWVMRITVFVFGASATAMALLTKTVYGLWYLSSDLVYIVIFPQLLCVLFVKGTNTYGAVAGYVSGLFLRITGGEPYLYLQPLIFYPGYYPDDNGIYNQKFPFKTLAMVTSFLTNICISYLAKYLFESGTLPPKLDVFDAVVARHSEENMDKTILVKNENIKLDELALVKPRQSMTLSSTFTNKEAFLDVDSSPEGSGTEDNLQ

[5] = biological target: T2, High affinity choline transporter 1; test: human choline transporter blockers, potency – cell-based, 10-point CRC, membrane potential dye, dose response (AID 588401); type: functional;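 further: membrane potential dye fluorescence of choline-evoked depolarization via CHT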
[6] = biological target: Dual specificity protein phosphatase 3 (Homo sapiens, UniProt P51452); test: VHR phosphatase inhibition, dose response, selectivity assay for STEP inhibitor project, biochemical (AID 602374); type: functional; settings: read-out: IC50_Mean
Sequence of Dual specificity protein phosphatase 3 (P51452 whole entry): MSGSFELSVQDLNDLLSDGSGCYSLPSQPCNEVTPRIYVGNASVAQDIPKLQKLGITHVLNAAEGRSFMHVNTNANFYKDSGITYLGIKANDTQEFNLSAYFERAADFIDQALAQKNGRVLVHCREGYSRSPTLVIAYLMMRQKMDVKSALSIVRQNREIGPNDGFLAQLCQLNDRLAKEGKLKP

[7] = biological target: Tyrosine-protein phosphatase non-receptor type 11 (Homo sapiens, UniProt Q06124); test: PTPN11 enzyme inhibitors – biochemical, selectivity assay for STEP inhibitor project, dose response (AID 602367); type: functional; settings: read-out: IC50_Mean
Sequence of Tyrosine-protein phosphatase non-receptor type 11 (Q06124 whole entry): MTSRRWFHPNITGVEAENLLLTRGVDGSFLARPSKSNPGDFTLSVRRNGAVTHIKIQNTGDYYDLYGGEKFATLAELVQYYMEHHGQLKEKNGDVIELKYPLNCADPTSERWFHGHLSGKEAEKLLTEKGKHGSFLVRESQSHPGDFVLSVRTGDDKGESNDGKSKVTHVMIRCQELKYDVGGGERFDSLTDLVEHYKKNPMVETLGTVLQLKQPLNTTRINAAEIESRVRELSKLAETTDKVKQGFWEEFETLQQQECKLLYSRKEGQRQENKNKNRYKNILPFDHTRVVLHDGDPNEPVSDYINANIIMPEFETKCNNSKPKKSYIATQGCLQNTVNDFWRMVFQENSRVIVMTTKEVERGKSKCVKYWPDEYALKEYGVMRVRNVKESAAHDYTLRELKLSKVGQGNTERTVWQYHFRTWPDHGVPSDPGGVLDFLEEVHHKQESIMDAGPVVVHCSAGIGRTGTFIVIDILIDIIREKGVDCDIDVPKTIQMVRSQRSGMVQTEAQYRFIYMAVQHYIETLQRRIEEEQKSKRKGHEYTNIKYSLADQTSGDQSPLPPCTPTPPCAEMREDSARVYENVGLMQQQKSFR

[8] = biological target: Tyrosine-protein phosphatase non-receptor type 5 (Homo sapiens, UniProt P54829); test: PTPN5 enzyme inhibition – biochemical, fluorescence intensity, uHTS hits, confirmation (AID 602372); type: functional; settings: read-out: IC50_Mean
Sequence of Tyrosine-protein phosphatase non-receptor type 5 (P54829 whole entry): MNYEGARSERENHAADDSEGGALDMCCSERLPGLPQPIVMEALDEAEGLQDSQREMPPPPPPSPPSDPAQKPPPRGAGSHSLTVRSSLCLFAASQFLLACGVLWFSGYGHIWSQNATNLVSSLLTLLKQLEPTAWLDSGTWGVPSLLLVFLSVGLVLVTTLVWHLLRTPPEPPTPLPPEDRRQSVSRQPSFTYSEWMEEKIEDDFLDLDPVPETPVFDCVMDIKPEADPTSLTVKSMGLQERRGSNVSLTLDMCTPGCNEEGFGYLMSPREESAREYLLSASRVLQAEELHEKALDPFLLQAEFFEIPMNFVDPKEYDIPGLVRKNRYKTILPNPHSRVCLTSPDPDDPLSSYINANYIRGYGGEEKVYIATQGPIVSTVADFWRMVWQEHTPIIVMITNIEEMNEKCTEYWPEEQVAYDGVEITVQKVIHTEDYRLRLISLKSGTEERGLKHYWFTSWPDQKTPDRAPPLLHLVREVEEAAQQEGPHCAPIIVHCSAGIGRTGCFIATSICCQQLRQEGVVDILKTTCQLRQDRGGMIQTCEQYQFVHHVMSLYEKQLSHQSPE

[9] = biological target: DNA repair and recombination protein RAD54-like (Homo sapiens, UniProt Q92698); test: RAD54 Holliday junction migration blockers – biochemical, fluorescence, cherry-picked samples, dose series, confirmation (AID 651657); type: functional
Sequence of DNA repair and recombination protein RAD54-like (Q92698 whole entry): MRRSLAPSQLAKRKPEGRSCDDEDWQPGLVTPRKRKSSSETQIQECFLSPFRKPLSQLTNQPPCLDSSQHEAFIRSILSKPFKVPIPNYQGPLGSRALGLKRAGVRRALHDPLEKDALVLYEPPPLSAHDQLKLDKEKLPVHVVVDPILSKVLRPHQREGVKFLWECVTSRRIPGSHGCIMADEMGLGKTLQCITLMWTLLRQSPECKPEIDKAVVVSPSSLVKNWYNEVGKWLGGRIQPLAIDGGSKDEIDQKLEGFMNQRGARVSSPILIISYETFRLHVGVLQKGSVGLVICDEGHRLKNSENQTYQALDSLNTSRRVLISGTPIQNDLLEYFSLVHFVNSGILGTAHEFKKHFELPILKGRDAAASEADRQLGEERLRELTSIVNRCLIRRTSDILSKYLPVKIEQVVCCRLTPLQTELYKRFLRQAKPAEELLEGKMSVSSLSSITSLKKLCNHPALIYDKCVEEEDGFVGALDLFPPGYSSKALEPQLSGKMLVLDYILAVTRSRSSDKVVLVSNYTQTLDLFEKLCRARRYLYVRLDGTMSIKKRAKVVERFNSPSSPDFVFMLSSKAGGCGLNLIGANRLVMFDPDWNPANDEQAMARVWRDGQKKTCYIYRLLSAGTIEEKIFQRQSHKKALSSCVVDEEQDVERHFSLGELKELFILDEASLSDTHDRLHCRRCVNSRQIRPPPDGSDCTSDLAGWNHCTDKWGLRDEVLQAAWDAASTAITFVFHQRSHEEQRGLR

Protein RecA = biological target: T3, Protein RecA (Mycobacterium tuberculosis, UniProt P9WHJ3); test: Fluorescence Cell-Free Homogeneous Dose Retest to Identify Inhibitors of RecA-Intein Splicing Activity. [Related pubchem assays (depositor defined):AID2097, AID2223, AID489010, AID492950]; type: functional
T3 sequence (P9WHJ3 whole entry): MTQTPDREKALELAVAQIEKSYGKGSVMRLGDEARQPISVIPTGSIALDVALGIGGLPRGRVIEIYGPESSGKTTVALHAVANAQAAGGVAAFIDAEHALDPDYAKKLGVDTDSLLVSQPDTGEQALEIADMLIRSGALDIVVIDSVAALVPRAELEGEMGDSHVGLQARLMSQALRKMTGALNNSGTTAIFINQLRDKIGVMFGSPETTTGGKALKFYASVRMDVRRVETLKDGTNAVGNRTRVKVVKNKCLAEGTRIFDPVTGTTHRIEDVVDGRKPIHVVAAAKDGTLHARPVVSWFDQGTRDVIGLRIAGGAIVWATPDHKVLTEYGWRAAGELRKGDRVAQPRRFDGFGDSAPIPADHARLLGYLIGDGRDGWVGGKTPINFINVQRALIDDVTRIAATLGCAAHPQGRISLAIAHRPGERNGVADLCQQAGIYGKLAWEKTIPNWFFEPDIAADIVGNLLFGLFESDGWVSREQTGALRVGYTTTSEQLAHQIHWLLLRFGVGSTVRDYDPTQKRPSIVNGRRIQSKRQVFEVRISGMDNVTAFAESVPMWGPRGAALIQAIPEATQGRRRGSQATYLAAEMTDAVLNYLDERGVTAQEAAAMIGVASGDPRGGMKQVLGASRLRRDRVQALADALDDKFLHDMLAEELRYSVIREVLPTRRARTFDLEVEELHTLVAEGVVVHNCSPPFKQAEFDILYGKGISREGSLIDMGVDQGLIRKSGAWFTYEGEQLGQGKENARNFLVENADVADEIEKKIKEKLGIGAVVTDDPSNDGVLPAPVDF

[10] = biological target: T4, Apoptotic protease-activating factor 1 (Homo sapiens, UniProt O14727); type: functional
T4 sequence (O14727 whole entry): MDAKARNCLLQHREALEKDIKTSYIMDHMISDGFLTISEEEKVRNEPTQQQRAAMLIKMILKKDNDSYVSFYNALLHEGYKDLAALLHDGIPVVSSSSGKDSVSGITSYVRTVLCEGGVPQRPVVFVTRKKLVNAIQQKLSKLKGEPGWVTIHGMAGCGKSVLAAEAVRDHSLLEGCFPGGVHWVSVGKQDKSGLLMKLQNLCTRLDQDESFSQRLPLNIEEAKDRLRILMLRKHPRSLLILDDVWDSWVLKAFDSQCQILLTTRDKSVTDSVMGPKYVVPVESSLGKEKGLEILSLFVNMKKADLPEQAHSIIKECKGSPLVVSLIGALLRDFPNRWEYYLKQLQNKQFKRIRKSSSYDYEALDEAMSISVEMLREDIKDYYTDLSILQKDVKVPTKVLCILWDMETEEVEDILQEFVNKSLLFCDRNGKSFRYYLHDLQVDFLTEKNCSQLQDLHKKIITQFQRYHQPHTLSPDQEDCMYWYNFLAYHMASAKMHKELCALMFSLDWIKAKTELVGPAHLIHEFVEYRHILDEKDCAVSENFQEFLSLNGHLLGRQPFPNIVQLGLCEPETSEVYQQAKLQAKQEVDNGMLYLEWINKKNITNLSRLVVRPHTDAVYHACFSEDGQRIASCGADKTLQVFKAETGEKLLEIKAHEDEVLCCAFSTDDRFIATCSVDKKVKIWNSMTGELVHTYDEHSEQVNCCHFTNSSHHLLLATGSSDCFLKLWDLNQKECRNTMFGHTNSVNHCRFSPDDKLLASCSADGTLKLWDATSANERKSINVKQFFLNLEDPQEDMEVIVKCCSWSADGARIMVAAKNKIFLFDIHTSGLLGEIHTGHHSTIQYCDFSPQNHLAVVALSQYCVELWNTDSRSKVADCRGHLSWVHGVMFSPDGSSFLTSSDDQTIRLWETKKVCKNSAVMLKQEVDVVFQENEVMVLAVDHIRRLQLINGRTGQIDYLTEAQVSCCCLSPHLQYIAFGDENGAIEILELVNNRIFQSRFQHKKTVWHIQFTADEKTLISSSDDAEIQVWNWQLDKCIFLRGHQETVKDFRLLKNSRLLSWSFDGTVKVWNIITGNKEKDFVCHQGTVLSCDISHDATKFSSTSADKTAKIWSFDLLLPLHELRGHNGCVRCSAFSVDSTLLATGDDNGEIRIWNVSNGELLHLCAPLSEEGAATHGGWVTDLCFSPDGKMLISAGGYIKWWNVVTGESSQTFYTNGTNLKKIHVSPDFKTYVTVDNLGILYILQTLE

[11] = biological target: T5, Replicative DNA helicase DnaB (Mycobacterium tuberculosis, UniProt P9WMR3); test: DnaB intein splicing inhibitors, dose response, biochemical, cell-free fluorescence (AID 449749); type: functional
T5 sequence (P9WMR3 whole entry): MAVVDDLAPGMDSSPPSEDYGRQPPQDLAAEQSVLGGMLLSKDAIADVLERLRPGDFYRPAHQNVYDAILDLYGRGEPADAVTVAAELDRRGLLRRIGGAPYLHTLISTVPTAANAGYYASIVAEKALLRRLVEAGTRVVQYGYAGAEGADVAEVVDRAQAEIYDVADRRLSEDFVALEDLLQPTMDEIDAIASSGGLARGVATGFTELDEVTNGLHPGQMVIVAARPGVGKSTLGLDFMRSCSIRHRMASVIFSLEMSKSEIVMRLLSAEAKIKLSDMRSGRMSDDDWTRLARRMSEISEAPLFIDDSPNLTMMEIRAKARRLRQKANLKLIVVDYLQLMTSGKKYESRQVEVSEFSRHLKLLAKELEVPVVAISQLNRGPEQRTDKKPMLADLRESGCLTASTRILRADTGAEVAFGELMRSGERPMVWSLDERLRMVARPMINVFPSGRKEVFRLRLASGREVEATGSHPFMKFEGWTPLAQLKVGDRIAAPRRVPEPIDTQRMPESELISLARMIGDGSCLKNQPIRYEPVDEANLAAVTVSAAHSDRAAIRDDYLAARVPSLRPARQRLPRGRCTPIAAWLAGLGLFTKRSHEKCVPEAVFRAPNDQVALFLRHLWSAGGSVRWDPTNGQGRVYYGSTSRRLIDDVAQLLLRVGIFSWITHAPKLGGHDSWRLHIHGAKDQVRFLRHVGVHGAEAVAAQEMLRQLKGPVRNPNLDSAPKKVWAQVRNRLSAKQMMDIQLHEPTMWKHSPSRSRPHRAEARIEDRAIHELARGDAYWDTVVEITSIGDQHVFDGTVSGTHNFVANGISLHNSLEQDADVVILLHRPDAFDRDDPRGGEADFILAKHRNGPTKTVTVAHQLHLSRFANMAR

Sequence of Adenosylmethionine-8-amino-7-oxononanoate aminotransferase (P9WQ81 whole entry): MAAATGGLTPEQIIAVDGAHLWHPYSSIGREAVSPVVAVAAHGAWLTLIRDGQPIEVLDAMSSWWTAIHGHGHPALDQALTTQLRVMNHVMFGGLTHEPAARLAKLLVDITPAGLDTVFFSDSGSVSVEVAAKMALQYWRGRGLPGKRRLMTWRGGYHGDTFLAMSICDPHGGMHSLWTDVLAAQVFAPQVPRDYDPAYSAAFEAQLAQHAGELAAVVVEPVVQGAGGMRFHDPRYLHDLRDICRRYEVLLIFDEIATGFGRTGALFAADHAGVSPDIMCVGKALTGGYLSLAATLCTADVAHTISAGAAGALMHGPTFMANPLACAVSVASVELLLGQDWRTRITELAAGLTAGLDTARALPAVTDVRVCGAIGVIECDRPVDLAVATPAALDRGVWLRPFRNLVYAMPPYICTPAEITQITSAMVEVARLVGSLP

Compound: CCOC(=O)c1ccc(N2C(=O)c3[nH]nc(C)c3C2c2ccc(OC)c(OC)c2)cc1 (stereo unspecified)
- AC50 [1]: 128 nM (active)

Compound: Cc1ccc(NC(=O)CCCCCC2NC(=O)NC2C)cc1 (stereo unspecified)
- IC50 (Nonstructural protein 1): 1060 nM (active)
- IC50 [2]: 14.5 nM (active)
- AC50 [3]: 358 nM (active)

Compound: N#Cc1nc(Cc2cccc3ccccc23)oc1NCCCN1CCOCC1
- IC50 [4]: 3800 nM (active)
- IC50 [5]: 1580 nM (active)

Compound: COc1ccc(NC(=O)c2cc(=O)c3ccccc3o2)cc1Cl
- IC50 [6]: 4600 nM (active)
- IC50 [7]: 2820 nM (active)
- IC50 [8]: > 80000 nM (inactive)

Compound: O=C(Nc1cccnc1)c1cc2nc(C3CC3)cc(C(F)(F)F)n2n1
- AC50 [1]: 144 nM (active)

Compound: CNc1nc(SC)nc2ccsc12
- IC50 [4]: 743 nM (active)
- IC50 [5]: 1500 nM (active)

Compound: CCN1CCN(c2cc(C)c3cc(NC(S)=NCCN(C)C)ccc3n2)CC1
- AC50 [9]: 24300 nM (active)

Compound: COc1ccc(S(=O)(=O)/N=C2\C=C(NS(=O)(=O)c3ccccc3)C(=O)c3ccccc32)cc1
- EC50 (Protein RecA): 1580 nM (active)
- IC50 [10]: 16600 nM (active)
- AC50 [11]: 1890 nM (active)
